For assay [1], the target named is Tyrosine-protein kinase JAK2 (Homo sapiens, UniProt O60674). Nature of the assay: (§1) JAK Enzyme Assay: The activity of the isolated recombinant JAK1 and JAK2 kinase domain was measured by monitoring phosphorylation of a peptide derived from JAK3 ([…] fluorescently labeled on the N-terminus with 5-carboxyfluorescein) using the Caliper LabChip® technology (Caliper Life Sciences, Hopkinton, Mass.). […] Reactions were incubated at 22° C. in 384-well polypropylene microtiter plates for 30 minutes and then stopped by addition of 25 μL of an EDTA containing solution (100 mM HEPES buffer (pH 7.2), 0.015% Brij-35, 150 mM EDTA), resulting in a final EDTA concentration of 50 mM. After termination of the kinase reaction, the proportion of phosphorylated product was determined as a fraction of total peptide substrate using the Caliper LabChip® 3000 according to the manufacturer's specifications.

In assay [2] the target is Tyrosine-protein kinase JAK1 (Homo sapiens, UniProt P23458). The description is as §1.

What is called Ki is the dissociation constant of the complex between target and ligand, obtained from inhibition or displacement.

Sequence of Tyrosine-protein kinase JAK1 (P23458 whole entry): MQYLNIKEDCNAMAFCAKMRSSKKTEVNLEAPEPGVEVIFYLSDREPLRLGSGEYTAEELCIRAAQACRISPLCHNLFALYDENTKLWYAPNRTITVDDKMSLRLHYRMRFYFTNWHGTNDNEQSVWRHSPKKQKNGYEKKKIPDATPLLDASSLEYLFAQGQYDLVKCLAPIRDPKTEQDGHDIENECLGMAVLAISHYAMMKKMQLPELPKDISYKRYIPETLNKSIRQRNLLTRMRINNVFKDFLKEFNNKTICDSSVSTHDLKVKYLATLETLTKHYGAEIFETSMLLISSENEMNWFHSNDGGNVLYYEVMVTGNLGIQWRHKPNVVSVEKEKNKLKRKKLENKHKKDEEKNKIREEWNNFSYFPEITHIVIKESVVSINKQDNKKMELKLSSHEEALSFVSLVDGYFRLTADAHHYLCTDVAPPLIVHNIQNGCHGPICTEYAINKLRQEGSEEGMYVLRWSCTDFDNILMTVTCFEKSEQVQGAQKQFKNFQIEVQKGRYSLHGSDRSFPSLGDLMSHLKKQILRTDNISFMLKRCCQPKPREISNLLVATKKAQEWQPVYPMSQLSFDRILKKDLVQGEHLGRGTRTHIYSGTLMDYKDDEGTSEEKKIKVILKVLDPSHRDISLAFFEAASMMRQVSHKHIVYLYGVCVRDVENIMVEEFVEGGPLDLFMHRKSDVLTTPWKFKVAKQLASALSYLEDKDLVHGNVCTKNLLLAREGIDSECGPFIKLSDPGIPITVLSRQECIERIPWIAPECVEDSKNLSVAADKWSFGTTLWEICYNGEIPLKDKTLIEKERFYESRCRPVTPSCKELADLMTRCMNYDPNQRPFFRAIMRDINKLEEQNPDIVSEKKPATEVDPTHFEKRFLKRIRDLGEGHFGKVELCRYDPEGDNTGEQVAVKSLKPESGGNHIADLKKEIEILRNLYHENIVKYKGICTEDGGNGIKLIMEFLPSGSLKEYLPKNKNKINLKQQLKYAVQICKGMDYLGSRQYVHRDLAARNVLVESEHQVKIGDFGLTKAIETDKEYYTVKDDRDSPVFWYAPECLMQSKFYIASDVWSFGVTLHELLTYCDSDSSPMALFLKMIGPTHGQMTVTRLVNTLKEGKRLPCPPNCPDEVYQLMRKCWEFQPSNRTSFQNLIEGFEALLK
Sequence of Tyrosine-protein kinase JAK2 (O60674 whole entry, the tested form may be a part): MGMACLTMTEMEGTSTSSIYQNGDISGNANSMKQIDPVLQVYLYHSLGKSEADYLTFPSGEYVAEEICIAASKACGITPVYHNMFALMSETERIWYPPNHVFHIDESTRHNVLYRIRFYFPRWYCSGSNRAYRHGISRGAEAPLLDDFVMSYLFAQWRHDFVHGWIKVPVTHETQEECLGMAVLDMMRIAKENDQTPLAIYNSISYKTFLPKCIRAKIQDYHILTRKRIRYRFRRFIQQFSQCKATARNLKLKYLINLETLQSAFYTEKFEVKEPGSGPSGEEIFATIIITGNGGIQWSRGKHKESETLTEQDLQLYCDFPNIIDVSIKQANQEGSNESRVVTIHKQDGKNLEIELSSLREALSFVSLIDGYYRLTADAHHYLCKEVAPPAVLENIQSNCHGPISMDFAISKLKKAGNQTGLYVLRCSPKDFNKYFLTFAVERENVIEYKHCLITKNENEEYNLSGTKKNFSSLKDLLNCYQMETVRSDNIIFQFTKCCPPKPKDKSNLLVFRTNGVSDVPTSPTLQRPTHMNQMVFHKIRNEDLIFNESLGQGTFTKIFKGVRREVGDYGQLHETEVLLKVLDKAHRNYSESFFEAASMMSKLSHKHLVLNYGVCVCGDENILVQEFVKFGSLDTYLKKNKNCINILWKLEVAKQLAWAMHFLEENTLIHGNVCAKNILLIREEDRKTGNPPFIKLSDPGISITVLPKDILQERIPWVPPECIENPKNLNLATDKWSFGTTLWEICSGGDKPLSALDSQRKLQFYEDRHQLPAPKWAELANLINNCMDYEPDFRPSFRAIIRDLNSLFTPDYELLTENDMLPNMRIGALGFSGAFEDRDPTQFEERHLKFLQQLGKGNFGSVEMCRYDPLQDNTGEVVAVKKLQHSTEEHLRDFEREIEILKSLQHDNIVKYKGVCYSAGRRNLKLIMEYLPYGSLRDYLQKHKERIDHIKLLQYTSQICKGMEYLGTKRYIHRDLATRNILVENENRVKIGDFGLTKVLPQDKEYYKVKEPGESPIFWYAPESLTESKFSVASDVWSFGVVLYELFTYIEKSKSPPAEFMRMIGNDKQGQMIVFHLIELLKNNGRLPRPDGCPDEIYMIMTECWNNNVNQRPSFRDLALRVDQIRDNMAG

Turning to `C[N+](C)(CCCc1ccccc1)C1CCN(C(=O)Cn2cc(NC(=O)c3cnn4cccnc34)c(-c3cc(Cl)ccc3OC(F)F)n2)CC1`, the inhibitory constant (Ki) came out at 2900 pM in assay [1] and 1210 pM in assay [2]. In the case of `CCOC(=O)CCN1CCN(C(=O)Cn2cc(NC(=O)c3cnn4cccnc34)c(-c3cc(Cl)ccc3OC(F)F)n2)CC1`, the Ki in assay [2] worked out at 490 pM.

For `CN(C)C1CCN(C(=O)C2CCN(c3nc(-c4cc(Cl)ccc4OC(F)F)c(NC(=O)c4cnn5cccnc45)s3)CC2)CC1`, the values for the Ki in assay [1] and in assay [2] were 860 pM and 890 pM, respectively. Turning to `O=C(Nc1cn(CC(=O)N2CCC(N3CC[S+]([O-])CC3)CC2)nc1-c1cc(Cl)ccc1OC(F)F)c1cnn2cccnc12`, the Ki in assay [1] was 630 pM; in assay [2] it was 230 pM. In the case of `CN(CC1(C#N)CC1)C1CCN(C(=O)Cn2cc(NC(=O)c3cnn4cccnc34)c(-c3cc(Cl)ccc3OC(F)F)n2)CC1`, the Ki in assay [1] amounted to 640 pM. As to `Nc1nn2cccnc2c1C(=O)Nc1cn(CC(=O)N2CC[C@@H](O)C2)nc1-c1cc(Cl)ccc1OC(F)F`, the Ki in assay [1] amounted to 130 pM. In the case of `N#C[C@H]1CCCN(C2CCN(C(=O)Cn3cc(NC(=O)c4cnn5cccnc45)c(-c4cc(Cl)ccc4OC(F)F)n3)CC2)C1`, the Ki in assay [1] was 760 pM; in assay [2], 300 pM.

In the case of `CN1CCC(n2cc(NC(=O)c3c(N)nn4cccnc34)c(-c3cc(Cl)ccc3OC(F)F)n2)CC1`, in assay [2], the Ki turned out to be 760 pM.

Values taken from ChEMBL document CHEMBL3886737, “5-chloro-2-difluoromethoxyphenyl pyrazolopyrimidine compounds, compositions and methods of use thereof” (2016).
